Measurements taken from patent EP4201929A1, “QUINOXALINE THIOREDOXIN REDUCTASE INHIBITORS” (geneXplain GmbH, priority 2021, dated 2023).

Assays:
Assay type in all cases: cell-based
TrxRl = biological target: T1, TrxRl (Homo sapiens, UniProt Q16881); assay: TrxR1 enzymatic activity measurement in cellulo (TXN-dependent insulin reduction assay); conditions: MCF7 breast cancer cells, 5 or 10 µM, 2h after treatment, depending on concentration
T1 construct: endogenous in cells; host or cells: MCF7 (A37, A39); HCT116 (A39)
Method: MCF7 cells were treated with 5 or 10 µM 1d*HCl or DMSO as a control. Cells were collected 2 h and 6 h after treatment, washed twice with PBS, and lysed in 100 µL of lysis buffer (50 mM Tris-HCl, 2mM EDTA, 0.15 M NaCl, 1% Triton X-100, protease inhibitors (Roche), pH 7.5). Cells were scraped, collected and snap frozen. After three freeze-thawing cycles the lysate was spinned down, supernatant collected and protein concentration measured using Pierce bicinchoninic acid assay kit (BCA, from Thermofisher Scientific) according to the manufacturer's protocol. To measure TrxR activity, the end-point TXN-dependent insulin reduction assay was used, essentially as described previously (WC Stafford, et al, Irreversible inhibition of cytosolic thioredoxin reductase 1 as a mechanistic basis for anti-cancer therapy, Sci Transl Med (2018), Feb 14;10(428):eaaf7444. doi: 10.1126/scitranslmed.aaf7444). […] After 0, 15 and 30 min, 10 µL aliquots were taken and combined with 6 M guanidine-HCl and 2.5 mM DTNB in 96-well plates (PerkinElmer), whereupon the absorbance at 412 nm was measured using microplate spectrophotometer (TECAN). Levels of active TrxR were normalised to DMSO control samples from each treatment timepoint.
Having established that 1d*HCl inhibits TrxR1activity in vitro, it was important to confirm that 1d*HCl targets TrxRl in living cells. […]

[1] = test system: HCT116 p53-/- and A375p53-/- cells; assay: Growth suppression in wild type p53 versus p53-negative isogenic cells; conditions: HCT116 vs HCT116 p53-/-; A375 vs A375p53-/-
Method: Cells were grown in 96-well plates at a density of 3000 cells per well with or without doxycycline and treated with compounds. After 48 hours of incubation the proliferative cell reagent resazurin (Thermo Fisher Scientific) was added to the cells. The degree of resazurin reduction, which reflects cell viability, was measured by microplate reader by monitoring the absorbance at 570 nm and 600 nm, according to the manufacturer.
Since p53 is a major inducer of apoptosis, including ROS-induced apoptosis, we tested whether p53 plays a role in growth suppression by 1d*HCl. We used wild type p53 HCT116 cells and their isogenic p53-negative cell line HCT116 p53-/-, as well as a pair of wild type p53 A375 and p53-negative A375p53-/- melanoma cells, generated using CRISPR-Cas9, as described previously [Zhou X, Singh M, Sanz Santos G, Guerlavais V, Carvajal LA, Aivado M, Zhan Y, Oliveira MMS, Westerberg LS, Annis DA, Johnsen JI, Selivanova G. Pharmacologic activation of p53 triggers viral mimicry response thereby abolishing tumor immune evasion and promoting anti-tumor immunity Cancer Discov. ([…]), 11(12), 3090-3105]. […] This allowed us to conclude that the tumor suppression is p53 -independent. […]

TrxRl covalent dimers = biological target: T2, TrxRl covalent dimers (Homo sapiens, UniProt Q16881); assay: Detection of TrxR dimers by Western blot; conditions: HCT116 and MCF7 cells, 5 µM, detected as soon as 2h after treatment
T2 construct: endogenous in cells; host or cells: MCF7 (A37, A39); HCT116 (A39)
Method: The extraction of total cell lysates and western blot were performed according to standard procedure. The antibodies used for immunoblotting were: p53 (sc-126, Santa Cruz Biotechnology), γH2AX (#07-164, Millipore), TrxRl 19A1 (AbFrontier). Anti-β-actin monoclonal antibody (Millipore) was used as loading control. The horseradish peroxidase-coupled secondary antibodies (Jackson ImmunoResearch) and SuperSignal™ West Dura Extended Duration Substrate detection system (Thermo Fischer Scientific), and images were visualized using ChemiDoc Imaging System (Bio-Rad).
MCF7 or HCT116 cells were treated in culture with 5 or 10 µM of 1d*HCl (Example 4) in complete medium for 2h or 6h. For each case, duplicate drug treated samples were produced plus duplicate control treatment samples using equal volumes of the drug vehicle dimethyl sulfoxide. Detached cells from each biological replicate were washed, suspended in PBS containing protease inhibitors and cells lysed through freeze thaw cycles in liquid N2, according to the reference protocol. Soluble fraction was separated from precipitated protein by ultracentrifugation at 100000 g for 30 minutes at 4°C and TrxRl dimer formation was analysed using Western blot as described above. […]

[2] = Growth suppression with selenium in culture medium; conditions: selenium added to culture medium
Text: To find out whether the inhibition of TrxRl is the major mechanism of action of 1d*HCl, we addressed the question, whether stimulation of TrxRl activity will decrease the growth suppression activity of 1d*HCl. Since TrxR is a selenium-containing enzyme and the concentration of selenium is rate-limiting for TrxRl, we added selenium to culture medium to test whether selenium will alleviate the growth suppression by 1d*HCl.

T2 sequence (Q16881 151-649): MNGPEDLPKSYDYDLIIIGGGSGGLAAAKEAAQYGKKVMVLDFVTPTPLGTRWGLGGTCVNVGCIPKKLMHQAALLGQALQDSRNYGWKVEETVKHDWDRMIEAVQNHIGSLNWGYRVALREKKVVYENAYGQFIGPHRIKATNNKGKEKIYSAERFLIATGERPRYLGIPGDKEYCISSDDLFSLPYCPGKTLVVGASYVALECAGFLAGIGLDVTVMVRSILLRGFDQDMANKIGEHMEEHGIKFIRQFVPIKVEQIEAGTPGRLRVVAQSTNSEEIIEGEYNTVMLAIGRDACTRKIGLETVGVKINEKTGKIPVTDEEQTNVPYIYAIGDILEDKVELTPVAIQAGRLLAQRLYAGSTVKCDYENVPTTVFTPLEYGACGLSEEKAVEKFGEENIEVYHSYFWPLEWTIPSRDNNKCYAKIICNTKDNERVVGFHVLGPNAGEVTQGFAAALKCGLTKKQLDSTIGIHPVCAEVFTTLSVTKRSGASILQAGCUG
T1 sequence (Q16881 151-649): as above

Q: With `Cl.N#Cc1c(-c2cccnc2)[n+]([O-])c2cc(F)c(N3CCOCC3)cc2[n+]1[O-]` [1d*HCl, 6-Fluoro-7-(morpholin-4-yl)-3-(pyridin-3-yl)quinoxaline-2-carbonitrile-1,4-dioxide hydrochloride] as the compound, how does the “inhibition of TrxRl activity in cells” value (TrxRl) read?
A: 70-80%

Q: And the “growth suppression in the absence of p53” value [1]?
A: not affected in the absence of p53

Q: What about the “formation of TrxRl covalent dimers (130 kDa band)” value (TrxRl covalent dimers) of the same compound?
A: induces the formation of TrxRl covalent dimers

Q: And the “growth suppression in the presence of selenium” value [2]?
A: less efficient
